Reference: patent publication US5641480A, “Hair care compositions comprising heteroatom containing alkyl aldonamide compounds” (Lever Brothers Company, Division of Conopco, Inc., priority 1994, dated 1997)

Columns and labels:
[1] = Ross-Miles foam height assay of aldonamides (Examples 81-84); assay type: physicochemical; conditions: 0.1% aldonamide, 40° C. (if not soluble, about 5°-10° C. above Krafft point), 0 ppm hardness; for Foam Height Final: after 10 minutes
Experimental: In the Ross-Miles method, 200 mL of a suffactant solution contained in a pipette of specified dimensions with a 2.9 -mm-i.d. orifice is allowed to fall 90 cm onto 50 mL of the same solution contained in a cylindrical vessel maintained at a given temperature by means of a water jacket. The height of the foam produced in the cylindrical vessel is read immediately after all the solution has run out of the pipette and then again after a given amount of time.
Using this method, the foam production (initial foam height in mm) and foam stability (final foam height after 10 minutes in mm) were measured at 0.1% aldonamtde concentration, 40° C. and 0 ppm (parts per million) hardness.

[2] = Krafft point determination; assay type: physicochemical; conditions: 0.1% in water
Experimental: The temperature at and above which surfactants begin to form micelles instead of precipitates is referred to as the Krafft point (Tk) and at this temperature the solubility of a surfactant becomes equal to its CMC (numerical value at which micelles are formed).
The Krafft point was measured by preparing 650 ml of a 0.1% or 1.0% dispersion of aldonamide in water by weight. If the surfactant was soluble at room temperature, the solution was slowly cooled to 0° C. […] (less than zero). If it precipitated out of solution, the temperature at which precipitation occurs was taken as the Krafft point.
If the surfactant was insoluble at room temperature, the dispersion was slowly heated until the solution became homogeneous. It was then slowly cooled until precipitation occurred. The temperature at which the surfactant precipitates out of solution upon cooling was taken as the Krafft point.

CCCCCCCNC(=O)[C@H](O)[C@@H](O)[C@H](O)[C@H](O)CO [C7 D-Gluconamide]
Foam Height Initial [1]: 0 mm
Foam Height Final [1]: 0 mm

CCCCCCCCCCCCOC(=O)C(C)NC(=O)[C@H](O)[C@@H](O)[C@H](O)[C@H](O)CO (mixture of isomers) [N--D-Gluconyl C12 DL-Alaninate, N-D-Gluconyl Dodecyl DL-Alaninate]
Foam Height Initial [1]: 197 mm
Foam Height Final [1]: 112 mm

CCCCCCCCCCCCOC(=O)CNC(=O)[C@H](O)[C@@H](O)[C@H](O[C@@H]1O[C@H](CO)[C@H](O)[C@H](O)[C@H]1O)[C@H](O)CO [D-Lactobionyl C12 Glycinate, N-D-Lactobionyl Dodecyl Glycinate]
Krafft Point (0.1%) [2]: < 0 °C
Foam Height Initial [1]: 161 mm
Foam Height Final [1]: 153 mm

CCCCCCCCCCCCNC(=O)[C@H](O)[C@H](O)[C@@H](O)[C@@H](O)CO [C12 L-Mannonamide]
Foam Height Initial [1]: Insoluble

CCCCCCCCCCCCOCCOCCOC(=O)CNC(=O)[C@H](O)[C@@H](O)[C@H](O)[C@H](O)CO [N--D-Gluconyl C12 Di(oxyethyl) Glycinate, N-D-Gluconyl Dodecyldi(oxyethyl) Glycinate]
Foam Height Initial [1]: 203 mm
Foam Height Final [1]: 169 mm

CCCCCCCCCCCCNC(=O)C(O)C(O)C(O)C(O)C(O)C(O)CO [C12 D-Glucooctonamide]
Krafft Point (0.1%) [2]: 86 °C

CCCCC(CC)COCCCNC(=O)[C@H](O)[C@@H](O)[C@H](O)[C@H](O)CO (stereo partly drawn) [Ethylhexyloxypropyl D-Gluconamide]
Foam Height Initial [1]: 0 mm
Foam Height Final [1]: 0 mm

CCCCCCCCCCCCOC(=O)CCNC(=O)[C@H](O)[C@@H](O)[C@H](O[C@@H]1O[C@H](CO)[C@H](O)[C@H](O)[C@H]1O)[C@H](O)CO [D-Lactobionyl C12 β-Alaninate, N-D-Lactobionyl Dodecyl β-Alaninate]
Krafft Point (0.1%) [2]: < 0 °C
Foam Height Initial [1]: 159 mm
Foam Height Final [1]: 152 mm

Dodecyl to Pentadecyloxypropyl D-Lactobionamide [C12 -C15 Oxypropyl D-Lactobionamide]
Krafft Point (0.1%) [2]: < 0 °C
Foam Height Initial [1]: 166 mm
Foam Height Final [1]: 155 mm

Octyl/Decyloxypropyl D-Ribonamide [C8 /C10 Oxypropyl D-Ribonamide]
Foam Height Initial [1]: 217 mm
Foam Height Final [1]: 200 mm

CCCCCCCCCCCCCCCCNC(=O)[C@H](O)[C@@H](O)[C@H](O)[C@H](O)CO [C16 D-Gluconamide]
Foam Height Initial [1]: Insoluble

CCCCCCCCCCCCCCCCCCNC(=O)[C@H](O)[C@@H](O)[C@H](O)[C@H](O)CO [C18 D-Gluconamide]
Foam Height Initial [1]: Insoluble

CCCCCCCCCCCCNC(=O)[C@@H](O)[C@H](O)[C@H](O)[C@@H](O)CO [C12 L-Galactonamide]
Foam Height Initial [1]: Insoluble

CCCCCCCCCCCCCCOCCCNC(=O)[C@H](O)[C@@H](O)[C@H](O)[C@H](O)CO [C14 Oxypropyl D-Gluconamide]
Foam Height Initial [1]: 203 mm
Foam Height Final [1]: 101 mm

CCCCCCCCCCCCCNC(=O)[C@H](O)[C@@H](O)[C@H](O[C@@H]1O[C@H](CO)[C@H](O)[C@H](O)[C@H]1O)[C@H](O)CO [C13 D-Lactobionamide]
Krafft Point (0.1%) [2]: 70 °C

CCCCCCCCCCCCCCCCNC(=O)[C@H](O)[C@@H](O)[C@H](O[C@@H]1O[C@H](CO)[C@H](O)[C@H](O)[C@H]1O)[C@H](O)CO [C16 D-Lactobionamide]
Krafft Point (0.1%) [2]: 64 °C
Foam Height Initial [1]: 95 mm
Foam Height Final [1]: 95 mm

CCCCCCCCCCCCNC(=O)[C@H](O)[C@@H](O)[C@@H](O)[C@H](O)CO [C12 D-Galactonamide]
Foam Height Initial [1]: Insoluble

CCCCCCCCCCCC(=O)OCCNC(=O)[C@H](O)[C@@H](O)[C@H](O)[C@H](O)CO [N--D-Gluconyl C12 Ester of Ethanolamine, N-D-gluconyl dodecyl ester of ethanolamine]
Foam Height Initial [1]: 185 mm
Foam Height Final [1]: 111 mm

CCCCCCCCCCCCNC(=O)[C@H](O)[C@@H](O)[C@H](O[C@@H]1O[C@H](CO)[C@H](O)[C@H](O)[C@H]1O)[C@H](O)CO [C12 D-Lactobionamide]
Krafft Point (0.1%) [2]: 38 °C
Foam Height Initial [1]: 153 mm
Foam Height Final [1]: 20 mm

CCCCCCCCCCCCOC(=O)CNC(=O)[C@H](O)[C@@H](O)[C@H](O)[C@H](O)CO [N--D-Gluconyl C12 Glycinate, N-D-Gluconyl Dodecyl Glycinate]
Foam Height Initial [1]: 183 mm
Foam Height Final [1]: 107 mm

dodecyl to pentadecyloxypropylaminopropyl D-gluconamide
Foam Height Initial [1]: 180 mm
Foam Height Final [1]: 176 mm

CCCCCCCC/C=C\CCCCCCCCNCCCNC(=O)[C@H](O)[C@@H](O)[C@H](O)[C@H](O)CO [Oleylaminopropyl D-Gluconamide]
Foam Height Initial [1]: 158 mm
Foam Height Final [1]: 84 mm

CCCCCCCCCCCCCCCNC(=O)[C@H](O)[C@@H](O)[C@H](O[C@@H]1O[C@H](CO)[C@H](O)[C@H](O)[C@H]1O)[C@H](O)CO [C15 D-Lactobionamide]
Krafft Point (0.1%) [2]: 84 °C

CCCCCCCCCCCCOCCCNC(=O)[C@H](O)[C@H](O)[C@@H](O)[C@H](O)[C@H](O)CO [C12 Oxypropyl D-Glucoheptonamide]
Foam Height Initial [1]: 245 mm
Foam Height Final [1]: 80 mm

CCCCCCCCCCCCNC(=O)[C@H](O)[C@H](O)[C@H](O)CO [C12 Ribonamide, Dodecyl D-Ribonamide]
Foam Height Initial [1]: 184 mm
Foam Height Final [1]: 103 mm

dodecyl to pentadecyloxypropyl D-gluconamide [C12 -C15 Oxypropyl D-Gluconamide]
Foam Height Initial [1]: 200 mm
Foam Height Final [1]: 110 mm

CCCCCCCCCCCCNC(=O)[C@H](O)[C@H](O)[C@@H](O)[C@@H](O)[C@H](O)CO [C12 D-Glycero-L-Mannoheptonamide]
Foam Height Initial [1]: Insoluble

CCCCCCCCCCCCCCNC(=O)[C@H](O)[C@@H](O)[C@H](O[C@H]1O[C@H](CO)[C@@H](O)[C@H](O)[C@H]1O)[C@H](O)CO [C14 D-Maltobionamide]
Krafft Point (0.1%) [2]: 46 °C

CCCCCCCCCCCCCCNC(=O)[C@H](O)[C@@H](O)[C@H](O)[C@H](O)CO [C14 D-Gluconamide]
Foam Height Initial [1]: Insoluble

CCCCCCCCCCCCCCCCCCNC(=O)[C@H](O)[C@@H](O)[C@H](O[C@@H]1O[C@H](CO)[C@H](O)[C@H](O)[C@H]1O)[C@H](O)CO [C18 D-Lactobionamide]
Krafft Point (0.1%) [2]: 82 °C

CCCCCCCCNC(=O)[C@H](O)[C@@H](O)[C@H](O)[C@H](O)CO [C8 D-Gluconamide]
Foam Height Initial [1]: 0 mm
Foam Height Final [1]: 0 mm
